ChEMBL document CHEMBL4152249, “Alkoxyphenylthiazoles with broad-spectrum activity against multidrug-resistant gram-positive bacterial pathogens” (Eur J Med Chem, 2018)

Assays:
Staphylococcus aureus [1] = assay: Antibacterial activity against vancomycin-resistant Staphylococcus aureus VRSA10 after 20 hrs by broth microdilution assay; format: functional; conditions: VRSA10, 20 h
Staphylococcus aureus [2] = assay: Bactericidal activity against methicillin-resistant Staphylococcus aureus NRS385 incubated for 20 hrs followed by re-plating on tryptic soy agar plates at 37 degC for 18 hrs by broth microdilution assay; format: functional
Enterococcus faecalis [3] = assay: Antibacterial activity against vancomycin-resistant Enterococcus faecalis ATCC 51299 after 20 hrs by broth microdilution assay; format: functional; conditions: ATCC 51299, 20 h
Enterococcus faecium [4] = assay: Bactericidal activity against vancomycin-resistant Enterococcus faecium ATCC 700221 incubated for 20 hrs followed by re-plating on tryptic soy agar plates at 37 degC for 18 hrs by broth microdilution assay; format: functional
Staphylococcus aureus [5] = assay: Antibacterial activity against methicillin-resistant Staphylococcus aureus 2658 RCMB after 20 hrs by broth microdilution assay; format: functional
Staphylococcus aureus [6] = assay: Antibacterial activity against methicillin-resistant Staphylococcus aureus after 20 hrs by broth microdilution assay; format: functional
[7] = tested on: Staphylococcus epidermidis; assay: Antibacterial activity against methicillin-resistant Staphylococcus epidermidis NRS101 after 20 hrs by broth microdilution assay; format: functional; conditions: NRS101, 20 h
[8] = Selectivity index, ratio of compound effect for human Caco2 cells at maximum non-toxic concentration concentration to MIC for vancomycin-resistant Enterococcus faecium ATCC 700221; format: toxicity; conditions: Caco-2 cells, read-out: Selectivity Index
Staphylococcus aureus [9] = assay: Bactericidal activity against vancomycin-resistant Staphylococcus aureus VRSA10 incubated for 20 hrs followed by re-plating on tryptic soy agar plates at 37 degC for 18 hrs by broth microdilution assay; format: functional
Staphylococcus aureus [10] = assay: Antibacterial activity against methicillin-resistant Staphylococcus aureus NRS385 after 20 hrs by broth microdilution assay; format: functional; conditions: NRS385, 20 h
Enterococcus faecalis [11] = assay: Bactericidal activity against vancomycin-resistant Enterococcus faecalis ATCC 51299 incubated for 20 hrs followed by re-plating on tryptic soy agar plates at 37 degC for 18 hrs by broth microdilution assay; format: functional
Staphylococcus aureus [12] = assay: Bactericidal activity against methicillin-resistant Staphylococcus aureus NRS386 incubated for 20 hrs followed by re-plating on tryptic soy agar plates at 37 degC for 18 hrs by broth microdilution assay; format: functional
Staphylococcus aureus [13] = assay: Bactericidal activity against vancomycin-resistant Staphylococcus aureus VRSA12 incubated for 20 hrs followed by re-plating on tryptic soy agar plates at 37 degC for 18 hrs by broth microdilution assay; format: functional
Staphylococcus aureus [14] = assay: Antibacterial activity against Staphylococcus aureus after 20 hrs by broth microdilution assay; format: functional
Enterococcus faecalis [15] = assay: Ratio of MBC to MIC for vancomycin-resistant Enterococcus faecalis ATCC 51299; format: functional
Staphylococcus aureus [16] = assay: Bactericidal activity against Staphylococcus aureus USA400 assessed as reduction in colony forming unit at 3 times MIC treated for 4 hrs followed by re-plating on tryptic soy agar plates at 37 degC for 18 to 20 hrs by broth microdilution assay; format: functional; parameters: scale not given: the % may be the effect or the level left
Streptococcus pneumoniae [17] = assay: Bactericidal activity against methicillin-resistant Streptococcus pneumoniae ATCC 700677 incubated for 20 hrs followed by re-plating on tryptic soy agar plates at 37 degC for 18 hrs by broth microdilution assay; format: functional
Caco-2 = assay: Cytotoxicity against human Caco2 cells assessed as effect on cell viability up to 64 ug/ml after 2 hrs by MTS assay; format: cell-based; conditions: caco-2, 2 h
Staphylococcus aureus [18] = assay: Antibacterial activity against vancomycin-resistant Staphylococcus aureus VRSA12 after 20 hrs by broth microdilution assay; format: functional; conditions: VRSA12, 20 h
Streptococcus pneumoniae [19] = assay: Bactericidal activity against cephalosporin-resistant Streptococcus pneumoniae ATCC 51916 incubated for 20 hrs followed by re-plating on tryptic soy agar plates at 37 degC for 18 hrs by broth microdilution assay; format: functional
[20] = Selectivity index, ratio of compound effect for human Caco2 cells at maximum non-toxic concentration concentration to MIC for vancomycin-resistant Enterococcus faecalis ATCC 51299; format: toxicity; conditions: Caco-2 cells, read-out: Selectivity Index
Streptococcus pneumoniae [21] = assay: Antibacterial activity against cephalosporin-resistant Streptococcus pneumoniae ATCC 51916 after 20 hrs by broth microdilution assay; format: functional; conditions: ATCC 51916, 20 h
[22] = Selectivity index, ratio of compound effect for human Caco2 cells at maximum non-toxic concentration concentration to MIC for cephalosporin-resistant Streptococcus pneumoniae ATCC 51916; format: toxicity; conditions: Caco-2 cells, read-out: Selectivity Index
Listeria monocytogenes [23] = assay: Bactericidal activity against Listeria monocytogenes ATCC 19111 incubated for 20 hrs followed by re-plating on tryptic soy agar plates at 37 degC for 18 hrs by broth microdilution assay; format: functional
[24] = Selectivity index, ratio of compound effect for human Caco2 cells at maximum non-toxic concentration concentration to MIC for methicillin-resistant Streptococcus pneumoniae ATCC 700677; format: toxicity; conditions: Caco-2 cells, read-out: Selectivity Index
Staphylococcus aureus [25] = assay: Bactericidal activity against Staphylococcus aureus USA300 NRS384 incubated for 20 hrs followed by re-plating on tryptic soy agar plates at 37 degC for 18 hrs by broth microdilution assay; format: functional
Staphylococcus aureus [26] = assay: Bactericidal activity against Staphylococcus aureus USA400 NRS123 incubated for 20 hrs followed by re-plating on tryptic soy agar plates at 37 degC for 18 hrs by broth microdilution assay; format: functional
Listeria monocytogenes [27] = assay: Antibacterial activity against Listeria monocytogenes ATCC 19111 after 20 hrs by broth microdilution assay; format: functional; conditions: ATCC 19111, 20 h
Staphylococcus aureus [28] = assay: Antibacterial activity against methicillin-resistant Staphylococcus aureus NRS386 after 20 hrs by broth microdilution assay; format: functional; conditions: NRS386, 20 h
Staphylococcus aureus [29] = assay: Bactericidal activity against Staphylococcus aureus USA400 assessed as reduction in colony forming unit at 6 times MIC treated for 2 hrs followed by re-plating on tryptic soy agar plates at 37 degC for 18 to 20 hrs by broth microdilution assay; format: functional; parameters: scale not given: the % may be the effect or the level left
Streptococcus pneumoniae [30] = assay: Antibacterial activity against methicillin-resistant Streptococcus pneumoniae ATCC 700677 after 20 hrs by broth microdilution assay; format: functional; conditions: ATCC 700677, 20 h
Staphylococcus aureus [31] = assay: Bactericidal activity against methicillin-sensitive Staphylococcus aureus NRS107 incubated for 20 hrs followed by re-plating on tryptic soy agar plates at 37 degC for 18 hrs by broth microdilution assay; format: functional
[32] = Selectivity index, ratio of compound effect for human Caco2 cells at maximum non-toxic concentration concentration to MIC for methicillin-resistant Staphylococcus epidermidis NRS101; format: toxicity; conditions: Caco-2 cells, read-out: Selectivity Index
Enterococcus faecium [33] = assay: Antibacterial activity against vancomycin-resistant Enterococcus faecium ATCC 700221 after 20 hrs by broth microdilution assay; format: functional; conditions: ATCC 700221, 20 h
Staphylococcus aureus [34] = assay: Bactericidal activity against linezolid-resistant Staphylococcus aureus NRS119 incubated for 20 hrs followed by re-plating on tryptic soy agar plates at 37 degC for 18 hrs by broth microdilution assay; format: functional
[35] = tested on: Staphylococcus epidermidis; assay: Bactericidal activity against methicillin-resistant Staphylococcus epidermidis NRS101 incubated for 20 hrs followed by re-plating on tryptic soy agar plates at 37 degC for 18 hrs by broth microdilution assay; format: functional
[36] = Selectivity index, ratio of compound effect for human Caco2 cells at maximum non-toxic concentration concentration to MIC for Listeria monocytogenes ATCC 19111; format: toxicity; conditions: Caco-2 cells, read-out: Selectivity Index
Listeria monocytogenes [37] = assay: Ratio of MBC to MIC for Listeria monocytogenes ATCC 19111; format: functional
Staphylococcus aureus [38] = assay: Antibacterial activity against methicillin-resistant Staphylococcus aureus USA400 NRS123 assessed as ratio of MIC after and before 14 passages over 2 weeks by broth microdilution method; format: functional

CCCCCCCOc1ccc(-c2nc(C)c(-c3ccnc(NC(=N)N4CCN(C)CC4)n3)s2)cc1
Non-Toxic: Activity (Caco-2)
4 µg/mL: MIC (Listeria monocytogenes [27])
1: Ratio (Enterococcus faecalis [15]) | Ratio (Listeria monocytogenes [37]) | Ratio (Staphylococcus aureus [38])
100%: Activity (Staphylococcus aureus [16]) | Activity (Staphylococcus aureus [29])
7 to 82: selectivity ratio [8] | selectivity ratio [20] | selectivity ratio [22] | selectivity ratio [24] | selectivity ratio [32] | selectivity ratio [36]
16 µg/mL: MBC (Enterococcus faecalis [11]) | MBC (Streptococcus pneumoniae [17]) | MBC (Streptococcus pneumoniae [19]) | MIC (Streptococcus pneumoniae [21]) | MIC (Streptococcus pneumoniae [30])
0.78 µg/mL: MIC (Staphylococcus aureus [5])
8 µg/mL: MIC (Staphylococcus aureus [1]) | MBC (Staphylococcus aureus [2]) | MIC (Enterococcus faecalis [3]) | MBC (Enterococcus faecium [4]) | MIC (Staphylococcus aureus [6]) | MIC [7] | MBC (Staphylococcus aureus [9]) | MIC (Staphylococcus aureus [10]) | MBC (Staphylococcus aureus [12]) | MBC (Staphylococcus aureus [13]) | MIC (Staphylococcus aureus [14]) | MIC (Staphylococcus aureus [18]) | MBC (Listeria monocytogenes [23]) | MBC (Staphylococcus aureus [25]) | MBC (Staphylococcus aureus [26]) | MIC (Staphylococcus aureus [28]) | MBC (Staphylococcus aureus [31]) | MIC (Enterococcus faecium [33]) | MBC (Staphylococcus aureus [34]) | MBC [35]
